Experimental findings from the SangsterLogP compilation are described below.

Usually logP stands for the decadic logarithm of the partition coefficient of the neutral form, usually between octanol and water. Low readings indicate a more hydrophilic compound, high ones a more lipophilic compound. Turning to `O=C(OCC1OC(OC(=O)c2cc(O)c(O)c(O)c2)C(O)C(O)C1O)c1cc(O)c(O)c(O)c1` (stereo not given), the lipophilicity (logP) is -0.33. The same measure for `O=C(O[C@@H]1Cc2c(O)cc(O)cc2O[C@@H]1c1cc(O)c(O)c(O)c1)c1cc(O)c(O)c(O)c1`: 1.08; for `O=C(OCC1O[C@@H](O)C(O)(COC(=O)c2cc(O)c(O)c(O)c2)C1OC(=O)c1cc(O)c(O)c(O)c1)c1cc(O)c(O)c(O)c1` (stereo not given in full): 0.61; for `O=C(OC[C@H]1OC(O)[C@@H]2OC(=O)c3cc(O)c(O)c(O)c3-c3c(cc(O)c(O)c3O)C(=O)O[C@H]2[C@@H]1OC(=O)c1cc(O)c(O)c(O)c1-c1c(O)c(O)c2oc(=O)c3cc(O)c(O)c4oc(=O)c1c2c43)c1cc(O)c(O)c(O)c1` (stereo not given in full): -2.15. The result for `O=C(O[C@@H]1COC(=O)c2cc(O)c(O)c(O)c2-c2c(cc(O)c(O)c2O)C(=O)OC1[C@@H]1OC(=O)c2cc(O)c(O)c(O)c2-c2c(O)c(O)c(O)c3c2C(=O)O[C@H]1[C@H]3O)c1cc(O)c(O)c(O)c1` (stereo not given in full) reads 1.28. In turn, `O=C(O[C@H]1Cc2c(O)cc(O)cc2O[C@H]1c1ccc(O)c(O)c1)c1cc(O)c(O)c(O)c1` registered a logP of 1.68. With `O=C(O[C@@H]1O[C@@H]2COC(=O)c3cc(O)c(O)c(O)c3-c3c(cc(O)c(O)c3O)C(=O)O[C@H]2[C@@H]2OC(=O)c3cc(O)c(O)c(O)c3-c3c(cc(O)c(O)c3O)C(=O)O[C@@H]12)c1cc(O)c(O)c(O)c1`, the logP is -1.07. The same measure for `O=C1OC[C@H]2OC(O)[C@@H]3OC(=O)c4cc(O)c(O)c(O)c4-c4c(cc(O)c(O)c4O)C(=O)O[C@H]3[C@@H]2OC(=O)c2cc(O)c(O)c(O)c2-c2c1cc(O)c(O)c2O` (stereo not given in full): -2.1; for `O=C(O[C@@H]1O[C@@H]2COC(=O)c3cc(O)c(O)c(O)c3-c3c(cc(O)c(O)c3O)C(=O)O[C@H]([C@H]1O)[C@@H]2O)c1cc(O)c(O)c(O)c1`: -1.19; for `Oc1cc(O)c2c(c1)OC(c1ccc(O)c(O)c1)C(O)C2c1c(O)cc(O)c2c1O[C@H](c1ccc(O)c(O)c1)[C@@H](O)C2` (stereo in doubt): -0.52. `O=C(O[C@@H]1O[C@H](CO)[C@@H](O)[C@H](O)[C@H]1O)c1cc(O)c(O)c(O)c1` gave a logP of -1.89.

In turn, `O=c1c(O[C@@H]2O[C@H](CO)[C@@H](O)[C@H](O)[C@H]2O)c(-c2ccc(O)c(O)c2)oc2cc(O)cc(O)c12` showed a logP of 0.7. In turn, `O=CC(O)(COC(=O)c1cc(O)c(O)c(O)c1)C(O)C(O)COC(=O)c1cc(O)c(O)c(O)c1` (stereo not given) returned a logP of -0.35. As to `O=CC1OC(=O)c2cc(O)c(O)c(O)c2-c2c(cc(O)c(O)c2O)C(=O)OC1C1OC(=O)c2cc(O)c(O)c(O)c2-c2c(O)c(O)c3oc(=O)c4c(c(O)c(O)c5oc(=O)c2c3c54)-c2c(cc(O)c(O)c2O)C(=O)OCC1O` (stereo not given), the logP is -2.7. In turn, `COc1cc(O)c2c(=O)cc(C)oc2c1` returned a logP of 1.
